These results are taken from US4036961A (priority 1972, dated 1977).

Assay [1] has as its target hydroxymethyldihydropteridine pyrophosphokinase (HMPPS) (Escherichia coli, UniProt P26281). Nature of the assay: Inhibition of the enzymes of dihydropteroate biosynthesis (ATP-γ-P32 transfer assay for HMPPS; dihydropteroate-C14 formation for synthetase). Format: biochemical. The following applies: enzymes from E. coli extract; tests (a) HMPPS and (b) synthetase of Example 5; read-out: concentration giving 50% inhibition. On the procedure: The inhibiting activity against HMPPS of a selected compound of formula (I) can, for instance, be tested by monitoring the transfer of the terminal phosphate of adenosine triphosphate ATP-γ-P^32 to `dihydropteridine`. […] Such inhibition may, for instance, be easily and simply carried out by incubating an extract of E. coli with pAB-7-C^14, ATP, Mg and `dihydropteridine`. The formation of the dihydropteroate-C^14 can be quantitatively assayed after separating the unreated pAB substrate, for instance by chromatography. […] Preferably the value is 25 μM or less, such as in the range between […]. Generally a value below 7μM is desirable. […]
phosphate of ATP-γ-P^32 to Pt could be monitored and correlated […]
Tubes 1 to 9 containing the amounts of components shown in the Table, were filled up to 200μl with distilled water, incubated for 60 minutes at 37° C and then chilled on ice. […] The charcoal and the filter were then radioactively counted.
The radioactive count from the contents of tubes 2 and 3 was taken as the maximum count, since these tubes contained no test compound and thus gave 0% enzyme inhibition. The percentage inhibition produced by the contents of the remaining tubes could then be calculated by relating their radioactive count to the maximum, as determined above. […]

Assay [2] has as its system Cl. perfringens. The following applies: disclosed in British Pat. No. 1303171 and Application No. 36289/70; cited from earlier work.
Assay [3] has as its system Derm. dermatonomous. The following applies: disclosed in British Pat. No. 1303171 and Application No. 36289/70; cited from earlier work.

Structures can show the parent of a compound that is named as a salt.

hydroxymethyldihydropteridine pyrophosphokinase (HMPPS), sequence (P26281 whole entry): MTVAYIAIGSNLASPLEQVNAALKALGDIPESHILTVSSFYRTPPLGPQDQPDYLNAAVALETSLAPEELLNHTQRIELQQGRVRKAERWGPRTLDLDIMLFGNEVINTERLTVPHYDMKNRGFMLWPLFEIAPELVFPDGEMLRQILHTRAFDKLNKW

As to `CC1(C)Nc2nc(N)nc(O)c2N=C1CBr` [2-Amino-4-hydroxy-6-bromomethyl-7,7-dimethyl-7,8-dihydropteridine hydrobromide], the IC50 in assay [1] was 5 µM.

Take `CC1(C)Nc2nc(N)nc(O)c2N=C1CO` [2-amino-4-hydroxy-6-hydroxymethyl-7,7-dimethyl-7,8-dihydropteridine]: the bacteriostatic activity result in assay [2] and in assay [3] was “particularly effective” each time.

`CC1=Nc2c(O)nc(N)nc2NC1(C)C` [2-amino-4-hydroxy-6-methyl-7,7-dimethyl-7,8-dihydropteridine]: the bacteriostatic activity result in assay [2] and in assay [3] was “particularly effective” each time.

`CC1(C)Nc2nc(N)nc(O)c2N=C1C(Br)Br` [the 6-dibromomethyl analogue, 2-Amino-4-hydroxy-6-dibromomethyl-7,7-dimethyl-7,8-dihydropteridine hydrobromide]: the IC50 in assay [1] was found to be 25 µM.
